Data on 3 compounds can be found in publication PMC7180617, “Biological Evaluation of 3-Benzylidenechromanones and Their Spiropyrazolines-Based Analogues” (Molecules, 2020).

Each structure is given as a SMILES string. “And” between values parts separate entries of the source, which are not always exact repeats. Identical values can stand only once.

Series [1] has as its system HL-60 cells. On the set-up: method as in PMID 30513785. The settings on record: MTT; cited from earlier work.
A further series relates to NALM-6 cells. More on the design: method as in PMID 30513785. The settings on record: MTT; cited from earlier work.
The nature of series [2]: Lipophilicity (logP) by RP-TLC. Particulars: RP-18 F254S TLC plates. The text has this:
Lipophilicity is one of the most important physicochemical properties in pharmaceutical research. It can be considered a key determinant of the pharmacokinetic properties of a drug. It is commonly measured by the partition coefficient between water and n-octanol, being expressed as logP [14]. […] Knowledge of the partition coefficient is valuable: it is frequently used in structure–activity relationship (SAR) and quantitative structure–activity relationship (QSAR) studies. The experimental lipophilicity of the synthesized compounds, viz. benzylideneflavanones, benzylidenechromanones and spiropyrazolines, was determined using RP-TLC. […] It is important to examine the relationship between structure of the compound and its lipophilicity and cytotoxicity.
The RP-TLC experiments were performed on TLC plates (5 × 10 cm) RP-18 F254S (Merck, Darmstadt, Germany). The synthesized compounds were dissolved in N,N-dimethylformamide DMF (2 mg/mL). […] A DMF-water solvent system was used as mobile phase. […] All experiments were performed at room temperature. The logP parameter was calculated using the equation from the calibration curve.

For series [3], the system named is HL-60 cells. As to the kind of experiment: Cell cycle analysis by flow cytometry (propidium iodide). It is filed as cell-based, human. The settings on record: for cell cycle, G1, mean / cell cycle, G2/M, mean / cell cycle, S, mean: mean of n=2; for cell cycle distribution, G1 / cell cycle distribution, G2 / cell cycle distribution, G2/M: HL-60, 20 h, mean ± SD, n = 2; for cells arrested in G2/M phase: HL-60, concentrations of IC50 and 0.5 × IC50. On the procedure: The next stage examined the effects of the selected compounds on cell cycle progression in HL-60 leukemia cells. […] One million HL-60 (subline CCL 240; cell type: promyeloblast) cells in 3 mL of RPMI 1640 supplemented with 20% FBS were seeded on 6-well plate. […] Fixed cells were stored in −20 °C for 2–3 days. Before analysis, cells were centrifuged (10 min, 1500 rpm, 4 °C) and washed twice with cold PBS. After the second wash, the cells were suspended in 1mL of PBS containing 100 μg of RNase A and incubated in 37 °C for 10 min. Next, 5 μL of solution of propidium iodide (1 mg/mL) was added to each sample and incubated in dark for 30 min at RT. Stained cells were analyzed by flow cytometry (FACS Calibur, BD Biosciences, San Jose, CA, USA). Data from 10,000 gated cells were collected using CellQuestPro software (Ver 6.0, Becton Dickinson) and cell cycle analysis was performed with ModFit LT software (Ver 3.2, Verity Software House, Topsham, ME, USA).
(In general: In flow cytometry, cells or beads pass a laser one at a time.)

The test system of another series is WM-115 cells. More on the design: method as in PMID 30513785. The settings on record: MTT; cited from earlier work.
The test system of the next series is plasmid DNA (pcDNAHisC). As to the kind of experiment: Digestion of plasmid DNA with BamHI restriction nuclease (DNA-cleavage protection). It is filed as biochemical. Particulars: 10 µM, overnight 37 °C, then BamHI 3 h, agarose gel. On the procedure:
This cytotoxicity was tested with regard to its effect on the cell cycle and the ability to modify DNA. In addition to the compounds shown in Table 4, two highly-cytotoxic compounds (11 and 12) were also tested. Their structure and biological activity were described in a previous article. […] To test this hypothesis, plasmid DNA was incubated with the test compounds and subsequently digested with BamH1 endonuclease. […] This conclusion is supported by the presence of the circular form of plasmid DNA after digestion with BamH1.
First, 0.5 µg of plasmid DNA (pcDNAHisC, total length 5.5 kbp) containing a unique BamHI restriction site was dissolved in a 1x BamHI reaction buffer and incubated overnight at 37 °C with the test compounds or daunorubicin, which was used as a positive control. The concentration of the test compounds and daunorubicin in the samples was 10 µM. The final concentration of DMSO in all samples was 10%. In the next step, the reaction mixtures were digested with BamHI restriction endonuclease (2 U/µL) for 3 h at 37 °C. Total reaction volume was 10 µL. Products of the reaction were separated in the 1% agarose gel in TBE buffer. The gel was stained with ethidium bromide and DNA fragments were visualized under a UV lamp (GBox, Syngene, Frederick, MD, USA).

Setting [4] is: Figure S3, HL-60, 0.5 × IC50 (µM: quercetin 29, 1 1.5, 7 18, 10 4.7, 11 4.5, 12 6).
Where [5] appears, read: Figure S3, HL-60, 0.5 × IC50, each of two repetitions.
[6] abbreviates: Figure S3, HL-60, 1 × IC50 (µM in parenthesis: quercetin 58, 1 3, 7 35, 10 9.4, 11 9, 12 12).
The mark [7] stands for this setting: Figure S3, HL-60, 1 × IC50 (µM: quercetin 58, 1 3, 7 35, 10 9.4, 11 9, 12 12).
The mark [8] stands for this setting: Figure S3, HL-60, 1 × IC50, each of two repetitions.
Setting [9] is: 0.5 × IC50 (µM: quercetin 29, 2 1.5, 7 18, 12 6, 11 4.5, 10 4.7).
The mark [10] stands for this setting: 1 × IC50 (µM: quercetin 58, 2 3, 7 35, 12 12, 11 9, 10 9.4).

As for `CCN(CC)c1ccc(/C=C2\COc3ccccc3C2=O)cc1` [Compound 12, (E)-3-(4-N,N-diethylaminobenzylidene)chroman-4-one], the IC50 – broadly, the midpoint of a concentration-inhibition curve – with HL-60 cells [1] was 11.8 ± 1.97 µM. Besides, the IC50 in the series on NALM-6 cells is 8.69 ± 0.4 µM. For the same compound, in series [2], the chromatographic logP (as a rule, a lipophilicity value derived from retention on a column) stood at 3.43. For the same compound, in the series on HL-60 cells [3] (setting [4]), the “cell cycle, G1, mean” value is 19,26%; the “cell cycle, G2/M, mean” value is given as 52,38%; the “cell cycle, S, mean” value is 28,37%. In the series with HL-60 cells [3] (setting [5]), the “cell cycle, G1, single repetitions” value is 17,44% and 21,08%; the “cell cycle, G2/M, single repetitions” value is 56,79% and 47,96%; the “cell cycle, S, single repetitions” value was 22,13% and 34,60%. Besides, the “cell cycle, G1, mean” value in the series on HL-60 cells [3] (setting [6]) is recorded as 19,53%. In addition, in the series on HL-60 cells [3] (setting [7]), the “cell cycle, G2/M, mean” value was 52,44% and the “cell cycle, S, mean” value was 28,03%. Also, in the series with HL-60 cells [3] (setting [8]), the “cell cycle, G2/M, single repetitions” value is 44,70% and 60,18%; the “cell cycle, S, single repetitions” value was 27,06% and 29,00%. Also, in the series with HL-60 cells [3] (setting [9]), the “cell cycle distribution, G1” value is recorded as 19.3 ± 2.6%; the “cell cycle distribution, G2” value is listed as 28.4 ± 8.8%; the “cell cycle distribution, G2/M” value turned out to be 52.4 ± 6.2%. Besides, in the series with HL-60 cells [3] (setting [10]), the “cell cycle distribution, G1” value worked out at 19.5 ± 12.3%; the “cell cycle distribution, G2” value is on record as 28.0 ± 1.4%; the “cell cycle distribution, G2/M” value came to 52.4 ± 10.9%. Further, the “cells arrested in G2/M phase” value with HL-60 cells [3] was 50–60%. The IC50 in the series on WM-115 cells is 18.1 ± 3.14 µM.
Take `CCN(CC)c1ccc(C=C2C(=O)c3ccccc3OC2c2ccccc2)cc1` (stereo not shown) [Compound 11, (E)-3-(4-N,N-diethylaminobenzylidene)-2-phenylchroman-4-one]: the IC50 with HL-60 cells [1] was 8.36 ± 0.63 µM. In addition, in the series on NALM-6 cells, the IC50 was 9.08 ± 0.3 µM. This compound also returned a chromatographic logP in series [2] of 5.69. In the series on HL-60 cells [3] (setting [4]), the “cell cycle, G1, mean” value is recorded as 5,95%; the “cell cycle, G2/M, mean” value is 59,23%; the “cell cycle, S, mean” value is on record as 34,83%. Besides, in the series with HL-60 cells [3] (setting [5]), the “cell cycle, G1, single repetitions” value is 3,45% and 8,45%; the “cell cycle, G2/M, single repetitions” value was 64,13% and 54,32%; the “cell cycle, S, single repetitions” value was 27,42% and 42,23%. In the series on HL-60 cells [3] (setting [6]), the “cell cycle, G1, mean” value is 3,17%. Besides, in the series with HL-60 cells [3] (setting [7]), the “cell cycle, G2/M, mean” value is given as 67,76% and the “cell cycle, S, mean” value was 29,08%. Further, in the series on HL-60 cells [3] (setting [8]), the “cell cycle, G1, single repetitions” value was 5,16% and 1,17%; the “cell cycle, G2/M, single repetitions” value was 67,98% and 67,53%; the “cell cycle, S, single repetitions” value was 26,86% and 31,30%. In the series with HL-60 cells [3] (setting [9]), the “cell cycle distribution, G1” value was 3.2 ± 2.8%; the “cell cycle distribution, G2” value amounted to 29.1 ± 3.1%; the “cell cycle distribution, G2/M” value came out at 67.8 ± 0.3%. In the series on HL-60 cells [3] (setting [10]), the “cell cycle distribution, G1” value was 6 ± 3.5%; the “cell cycle distribution, G2” value came out at 34.8 ± 10.5%; the “cell cycle distribution, G2/M” value is 59.2 ± 6.9%. Also, the “cells arrested in G2/M phase” value with HL-60 cells [3] is listed as 50–60%. Moreover, the IC50 in the series on WM-115 cells was 6.45 ± 0.69 µM.
Turning to `COc1cccc2c1C(=O)c1c(O)c3c(c(O)c1C2=O)C[C@@](O)(C(C)=O)C[C@@H]3O[C@H]1C[C@H](N)[C@H](O)[C@H](C)O1` [daunorubicin], in the series with plasmid DNA (pcDNAHisC), the “inhibition of BamHI digestion of plasmid DNA (in words)” value is reported as “prevented linearization of DNA”.
